Like-named read-outs stand apart in the source and are kept apart here.
Assay: In vivo microdialysis pharmacokinetics of LVFX without transporter inhibitors
Set-up: species or system rat
Details: for AUC(0-inf) / Cmax / AUC(0-t) / Tmax / Kp / MRT / half-life: rat; for AUC(0-inf) / Cmax / AUC(0-t) / Tmax / MRT / half-life: iv; for AUC(0-inf) / Cmax / AUC(0-t) / MRT / half-life: 50 mg/kg, mean ± SD; for AUC(0-t): read-out: AUC0–180 (converted); for Kp: intravenous, LVFX 50 mg/kg tail vein, no inhibitor
Description: On the day of surgery, rats were anesthetized using inhaled isoflurane via a facemask. The rats were placed in a stereotaxic frame (Gene&I), and the body temperature was maintained with a homoeothermic blanket set at 37°C. A midline incision was made to expose the skull. According to the Paxinos and Watson atlas, two microdialysis intracerebral guide cannulae (Eicom Co.) were implanted into the hippocampus CA1 region (Hp‐CA1 coordinates: AP −4.16 mm; ML −2.2 mm; DV −2.9 mm) and lateral ventricle (LV coordinates: AP −1.4 mm; ML +2.2 mm; DV −3.4 mm). Fixed to the skull using a screw and dental cement. After 3 days of recovery, the rats were anesthetized with isoflurane again. An intravascular probe (TP‐100‐20; 20 mm, Eicom Co.) was implanted into the jugular vein toward the right atrium. After the blood microdialysis probe was positioned within the jugular vein, the pipeline was connected to perfuse with ACD solution (citric acid 3.5 mM; sodium citrate 7.5 mM; dextrose 13.6 mM) at a flow rate of […], and the Hamilton microinjection pump was used for continuous perfusion. After stopping isoflurane inhalation, the rats were allowed to wake up naturally on the homoeothermic blanket. The awake rats were placed in a device that allowed them to move freely. Animals were allowed to recover for an additional 24 h.
All microdialysate concentrations (C m) from the hippocampal ECF and lateral ventricle CSF were converted to the unbound drug concentration (C u) at the target site using the following formula: C u = C m/R dial.
A total of 32 rats were randomly divided into the following groups: • Control group, N = 12: vehicle solution + LVFX (50 mg/kg). • TAR group, N = 5: Tariquidar (8 mg/kg) + LVFX (50 mg/kg). • Ko143 group, N = 5: Ko143 (15 mg/kg) + LVFX (50 mg/kg). • MK571 group, N = 5: MK571 (20 mg/kg) + LVFX (50 mg/kg). • PRO group, N = 5: Probenecid (50 mg/kg) + LVFX (50 mg/kg).
Given that the solvents of intervention drugs were different, the control group was subdivided into four subgroups (n = 3). According to the preparation method of the transporter regulator, an equal volume of solvent was used as the control.
Levofloxacin was freshly dissolved in isotonic saline and administered via tail vein injection. Thirty minutes before LVFX administration, the intervention drugs of each group were injected intraperitoneally. To reduce the possible effect of solvents on BBB or BCSFB permeability of LVFX, we prioritized water as the solvent. However, Tariquidar and Ko143 are insoluble in water, and a cosolvent must be used to prepare agents that animals can tolerate. According to the different physicochemical properties of these four inhibitors, the preparation of each transporter inhibitor solution in this experiment was as follows. • P‐glycoprotein (P‐gp) inhibitor Tariquidar[22]: Tariquidar was freshly dissolved in DMSO to 8 mg/ml and then diluted to 4 mg/ml with a solution containing 10% Tween‐80, 25% PEG300, and 65% sterile water. • Breast cancer resistance protein (BCRP) inhibitor Ko143[23]: Ko143 was freshly dissolved in DMSO to 15 mg/ml and then diluted to 7.5 mg/ml with a solution containing 10% Tween‐80, 25% PEG300, and 65% sterile water. • Multidrug resistance‐associated proteins (MRPs) inhibitor MK571[24]: MK571 sodium salt hydrate was dissolved in 1.25% (w/v) aq sodium hydrogen carbonate (NaHCO3) solution to obtain a concentration of 10 mg/ml. • Organic anion transporters (OATs) inhibitor probenecid[25]: Probenecid was dissolved in NaOH (pH = 9.0–9.2) alkalized physiological saline to obtain a concentration of 25 mg/ml.
The pipelines where the blood and brain probes were installed were perfused at the speed of 2 μl/min with ACD solution and ACSF, respectively. Two brain probes were inserted into guide cannulas of the target site and allowed to equilibrate for 1 h. Subsequently, the rats were treated according to their corresponding groups in the device where they could move freely.

[1] = CSF (lateral ventricle microdialysate), CSF, Group 1: vehicle solution of Tariquidar/Ko143 + LVFX 50 mg/kg, n=3
[2] = CSF (lateral ventricle microdialysate), CSF, Group 2: 1.25% NaHCO3 solution + LVFX 50 mg/kg, n=3
[3] = CSF (lateral ventricle microdialysate), CSF, Group 4: LVFX 50 mg/kg alone, n=3
[4] = CSF (lateral ventricle microdialysate), pH 9, CSF, Group 3: physiological saline alkalinized with NaOH (pH 9.0–9.2) + LVFX 50 mg/kg, n=3
[5] = CSF, CSF, Group 1: vehicle solution of Tariquidar/Ko143 + LVFX 50 mg/kg, n=3
[6] = CSF, CSF, Group 2: 1.25% NaHCO3 solution + LVFX 50 mg/kg, n=3
[7] = CSF, CSF, Group 4: LVFX 50 mg/kg alone, n=3
[8] = CSF, pH 9, CSF, Group 3: physiological saline alkalinized with NaOH (pH 9.0–9.2) + LVFX 50 mg/kg, n=3
[9] = blood (microdialysate, unbound), blood, Group 1: vehicle solution of Tariquidar/Ko143 + LVFX 50 mg/kg, n=3
[10] = blood (microdialysate, unbound), blood, Group 2: 1.25% NaHCO3 solution + LVFX 50 mg/kg, n=3
[11] = blood (microdialysate, unbound), blood, Group 4: LVFX 50 mg/kg alone, n=3
[12] = blood (microdialysate, unbound), pH 9, blood, Group 3: physiological saline alkalinized with NaOH (pH 9.0–9.2) + LVFX 50 mg/kg, n=3
[13] = blood, blood, control group, vehicle + LVFX 50 mg/kg tail vein, N=12
[14] = brain ECF, brain ECF, Group 1: vehicle solution of Tariquidar/Ko143 + LVFX 50 mg/kg, n=3
[15] = brain ECF, brain ECF, Group 2: 1.25% NaHCO3 solution + LVFX 50 mg/kg, n=3
[16] = brain ECF, brain ECF, Group 4: LVFX 50 mg/kg alone, n=3
[17] = brain ECF, pH 9, brain ECF, Group 3: physiological saline alkalinized with NaOH (pH 9.0–9.2) + LVFX 50 mg/kg, n=3
[18] = hippocampal brain ECF (microdialysate, unbound), hippocampal brain ECF, control group, vehicle + LVFX 50 mg/kg tail vein, N=12
[19] = lateral ventricle CSF (microdialysate, unbound), lateral ventricle CSF, control group, vehicle + LVFX 50 mg/kg tail vein, N=12

Compound `C[C@H]1COc2c(N3CCN(C)CC3)c(F)cc3c(=O)c(C(=O)O)cn1c23` [LVFX, Levofloxacin] has a T max (CSF, Group 2: 1.25% NaHCO3 solution + LVFX 50 mg/kg, n=3) of 15 min, a T max (CSF, Group 4: LVFX 50 mg/kg alone, n=3) of 15 min and a T max (blood, Group 2: 1.25% NaHCO3 solution + LVFX 50 mg/kg, n=3) of 15 min. For the same compound, the T max (blood, control group, vehicle + LVFX 50 mg/kg tail vein, N=12) was 15 min, the T max (brain ECF, Group 2: 1.25% NaHCO3 solution + LVFX 50 mg/kg, n=3) was 15 min and the T max (brain ECF, Group 4: LVFX 50 mg/kg alone, n=3) was 15 min. The AUC(0-inf) [1] was 4080 ng·h/mL, the Cmax [1] was 3540 ± 150 ng/mL and the AUC(0-t) [1] was 3810 ng·h/mL. The AUC(0-inf) [2] was 4490 ng·h/mL, the Cmax [2] was 3860 ± 320 ng/mL and the AUC(0-t) [2] was 4140 ng·h/mL. The Cmax [3] was 3480 ± 370 ng/mL, the AUC(0-t) [3] was 4330 ng·h/mL and the AUC(0-inf) [4] was 4950 ng·h/mL. It also gave a Cmax [4] of 3700 ± 140 ng/mL, an AUC(0-t) [4] of 4490 ng·h/mL and a Tmax [1] of 15 min. It also gave a Tmax (CSF (lateral ventricle microdialysate), CSF, Group 3: physiological saline alkalinized with NaOH (pH 9.0–9.2) + LVFX 50 mg/kg, n=3) of 15 min, a Kp (CSF / blood (unbound, microdialysate), AUCu,CSF/AUCu,blood, control group, N=12, read-out: K p,uu,CSF) of 0.412 ± 0.024 and an MRT [5] of 70.8 min. For the same compound, the half-life [5] was 38 ± 11.9 min, the MRT [6] was 74 min and the half-life [6] was 50.6 ± 8.78 min. It also gave an AUC(0-inf) [7] of 4680 ng·h/mL, an MRT [7] of 76.7 min and a half-life [7] of 42.2 ± 5.6 min. For the same compound, the MRT [8] was 81.8 min, the half-life [8] was 45.8 ± 19.7 min and the AUC(0-inf) [9] was 11000 ng·h/mL. The MRT [9] was 63.9 min, the half-life [9] was 40.5 ± 5.68 min and the AUC(0-t) [9] was 10300 ng·h/mL. The AUC(0-inf) [10] was 11700 ng·h/mL, the MRT [10] was 73.9 min and the half-life [10] was 50.5 ± 9.53 min. The AUC(0-t) [10] was 10700 ng·h/mL, the AUC(0-inf) [11] was 11700 ng·h/mL and the MRT [11] was 86.2 min. For the same compound, the half-life [11] was 60.6 ± 11.2 min, the AUC(0-t) [11] was 10200 ng·h/mL and the AUC(0-inf) [12] was 10100 ng·h/mL. For the same compound, the MRT [12] was 69.3 min, the half-life [12] was 45.3 ± 6.27 min and the AUC(0-t) [12] was 9340 ng·h/mL. For the same compound, the Tmax [11] was 15 min, the Cmax (blood, blood, Group 1: vehicle solution of Tariquidar/Ko143 + LVFX 50 mg/kg, n=3) was 10400 ± 1040 ng/mL and the Cmax (blood, blood, Group 2: 1.25% NaHCO3 solution + LVFX 50 mg/kg, n=3) was 10700 ± 320 ng/mL. For the same compound, the Cmax (blood, blood, Group 4: LVFX 50 mg/kg alone, n=3) was 9970 ± 590 ng/mL, the AUC(0-inf) [13] was 11100 ng·h/mL and the Cmax [13] was 10200 ± 700 ng/mL. For the same compound, the MRT [13] was 73.3 min, the half-life [13] was 49.2 ± 10.6 min and the AUC(0-t) [13] was 10200 ng·h/mL. For the same compound, the Cmax (blood, pH 9, blood, Group 3: physiological saline alkalinized with NaOH (pH 9.0–9.2) + LVFX 50 mg/kg, n=3) was 9780 ± 390 ng/mL, the Kp (brain ECF / blood, AUCu,ECF/AUCu,blood, control group, N=12, read-out: K p,uu,ECF) was 0.34 ± 0.017 and the AUC(0-inf) [14] was 3730 ng·h/mL. For the same compound, the Cmax [14] was 2920 ± 520 ng/mL, the MRT [14] was 74.1 min and the half-life [14] was 39.8 ± 14.3 min. It also gave an AUC(0-t) [14] of 3480 ng·h/mL, an AUC(0-inf) [15] of 3600 ng·h/mL and a Cmax [15] of 2720 ± 150 ng/mL. For the same compound, the MRT [15] was 84.1 min, the half-life [15] was 53.4 ± 9.24 min and the AUC(0-t) [15] was 3240 ng·h/mL. For the same compound, the AUC(0-inf) [16] was 3940 ng·h/mL, the Cmax [16] was 3050 ± 760 ng/mL and the MRT [16] was 80.9 min. For the same compound, the half-life [16] was 49 ± 17.9 min, the AUC(0-t) [16] was 3600 ng·h/mL and the AUC(0-inf) [17] was 3820 ng·h/mL. For the same compound, the Cmax [17] was 2540 ± 170 ng/mL, the MRT [17] was 84 min and the half-life [17] was 49.8 ± 20.7 min. The AUC(0-t) [17] was 3470 ng·h/mL, the AUC(0-inf) [18] was 3770 ng·h/mL and the Cmax [18] was 2710 ± 300 ng/mL. It also gave an MRT [18] of 80.8 min, a half-life [18] of 48 ± 14.7 min and an AUC(0-t) [18] of 3450 ng·h/mL. It also gave a Tmax [18] of 15 min, a Tmax (blood, Group 1: vehicle solution of Tariquidar/Ko143 + LVFX 50 mg/kg, n=3) of 15 min and a Tmax (blood, Group 3: physiological saline alkalinized with NaOH (pH 9.0–9.2) + LVFX 50 mg/kg, n=3) of 15 min. It also gave a Tmax (brain ECF, Group 1: vehicle solution of Tariquidar/Ko143 + LVFX 50 mg/kg, n=3) of 15 min, a Tmax (brain ECF, Group 3: physiological saline alkalinized with NaOH (pH 9.0–9.2) + LVFX 50 mg/kg, n=3) of 15 min and an AUC(0-inf) [19] of 4550 ng·h/mL. It also gave a Cmax [19] of 3650 ± 270 ng/mL, an MRT [19] of 75.8 min and a half-life [19] of 44.1 ± 11.8 min. The AUC(0-t) [19] was 4190 ng·h/mL, the Tmax [19] was 15 min and the “difference in LVFX concentration (and AUC value) between brain ECF and CSF” value (with or without treatment with transporter inhibitors) was less than 3 fold.

Source: article PMC9804084, “Multiple drug transporters contribute to the brain transfer of levofloxacin” (CNS Neuroscience & Therapeutics, 2022)
